US12552825B2 (Zikani Therapeutics, Inc., priority 2019, dated 2026)
Values after ≈ are worked out from the molar mass of the structure shown.

What was measured:
Format in all cases: cell-based
A. baumannii MP-15 = experiment: MIC determination by CLSI broth dilution, A. baumannii MP-15; conditions: for MIC A. baumanii MP-15: strain MP-15; for MIC: Acinetobacter baumannii, MP15, strain MP-15, read-out: MIC A. baumanii MP-15
K. pneumoniae MP-648 = experiment: MIC determination by CLSI broth dilution, K. pneumoniae MP-648; conditions: strain MP-648; for MIC K. pneumoniae MP-648: CLSI broth dilution; for MIC: Klebsiella pneumoniae, MP648, CLSI broth dilution
E. coli MP-4 = experiment: MIC determination by CLSI broth dilution, E. coli MP-4; conditions: strain MP-4; for MIC E. coli MP-4: CLSI broth dilution; for MIC: Escherichia coli, MP4, CLSI broth dilution
P. aeruginosa MP-3 = experiment: MIC determination by CLSI broth dilution, P. aeruginosa MP-3; conditions: for MIC P aeruginosa MP-3: strain MP-3; for MIC: Pseudomonas aeruginosa, MP3, strain MP-3
K. pneumoniae MP-546 = experiment: MIC determination by CLSI broth dilution, K. pneumoniae MP-546; conditions: CLSI broth dilution; strain MP-546
S. aureus MP-12 = experiment: microbe, parasite or virus in culture; conditions: Staphylococcus aureus, MP12, read-out: MIC S. aureus MP-12

SMILES | MIC A. baumanii MP-15 (A. baumannii MP-15) | MIC K. pneumoniae MP-648 (K. pneumoniae MP-648) | MIC E. coli MP-4 (E. coli MP-4) | MIC P aeruginosa MP-3 (P. aeruginosa MP-3) | MIC K. pneumoniae MP-546 (K. pneumoniae MP-546) | MIC (A. baumannii MP-15) [µg/mL] | MIC (K. pneumoniae MP-648) [µg/mL] | MIC (E. coli MP-4) [µg/mL] | MIC (S. aureus MP-12) [µg/mL] | MIC (P. aeruginosa MP-3) [µg/mL]
CO[C@]1(C)C[C@@H](C)CN(C)[C@H]([C@@H](O)C2CCN(CC3CC3)CC2)COC(=O)C(C)(C)C(=O)[C@H](C)[C@H]1O[C@@H]1O[C@H](C)C[C@H](N(C)C)[C@H]1O [Compound 28] | + (values greater than 32 mg/L) | + (values greater than 32 mg/L) | + (values greater than 32 mg/L) | + (values greater than 32 mg/L) | + (values greater than 32 mg/L) |  |  |  |  | 
CO[C@]1(C)C[C@@H](C)CN(C)[C@H](C[C@H]2C[C@H](N(C)CC(C)C)C2)COC(=O)C(C)(C)C(=O)[C@H](C)[C@H]1O[C@@H]1O[C@H](C)C[C@H](N(C)C)[C@H]1O [Compound 134, (3R,6R,8R,9R,10R)-9-(((2S,3R,4S,6R)-4-(dimethylamino)-3-hydroxy-6-methyltetrahydro-2H-pyran-2-yl)oxy)-3-(((1r,3S)-3-(isobutyl(methyl)amino)cyclobutyl)methyl)-8-methoxy-4,6,8,10,12,12-hexamethyl-1-oxa-4-azacyclotridecane-11,13-dione] | + (values greater than 32 mg/L) | +++ (values less than or equal to 4 mg/L) | +++ (values less than or equal to 4 mg/L) | + (values greater than 32 mg/L) | +++ (values less than or equal to 4 mg/L) |  |  |  |  | 
CO[C@]1(C)C[C@@H](C)CN(C)[C@H](/C=C/CN2CCCC2)COC(=O)C(C)(C)C(=O)[C@H](C)[C@H]1O[C@@H]1O[C@H](C)C[C@H](N(C)C)[C@H]1O [Compound 153] |  |  |  |  |  | > 32 | < 4 | < 4 | 4 to 32 (≈ 6.56 to 52.5 µM) | > 32
CCN1C[C@H](C)C[C@@](C)(OC)[C@H](O[C@@H]2O[C@H](C)C[C@H](N(C)C)[C@H]2O)[C@@H](C)C(=O)C(C)(C)C(=O)OC[C@H]1CC1CCN(CCOC)CC1 [Compound 170] |  |  |  |  |  | > 32 | < 4 | < 4 | 4 to 32 (≈ 5.97 to 47.8 µM) | > 32
CCN1C[C@H](C)C[C@@](C)(OC)[C@H](O[C@@H]2O[C@H](C)C[C@H](N(C)C)[C@H]2O)[C@@H](C)C(=O)C(C)(C)C(=O)OC[C@@H]1CN1CCN(C)CC1 [Compound 157, (3S,6R,8R,9R,10R)-9-(((2S,3R,4S,6R)-4-(dimethylamino)-3-hydroxy-6-methyltetrahydro-2H-pyran-2-yl)oxy)-4-ethyl-8-methoxy-6,8,10,12,12-pentamethyl-3-((4-methylpiperazin-1-yl)methyl)-1-oxa-4-azacyclotridecane-11,13-dione] |  |  |  |  |  | > 32 | 4 to 32 (≈ 6.38 to 51 µM) | < 4 | 4 to 32 (≈ 6.38 to 51 µM) | > 32
CCN1C[C@H](C)C[C@@](C)(OC)[C@H](O[C@@H]2O[C@H](C)C[C@H](N(C)C)[C@H]2O)[C@@H](C)C(=O)C(C)(C)C(=O)OC[C@H]1C=C1CCN(Cc2ccccc2)CC1 [Compound 192] |  |  |  |  |  | 4 to 32 (≈ 5.71 to 45.7 µM) | 4 to 32 (≈ 5.71 to 45.7 µM) | < 4 | < 4 | > 32
CCN1C[C@H](C)C[C@@](C)(OC)[C@H](O[C@@H]2O[C@H](C)C[C@H](N(C)C)[C@H]2O)[C@@H](C)C(=O)C(C)(C)C(=O)OC[C@@H]1CCCN1CCN(C)CC1 [Compound 180] |  |  |  |  |  | > 32 | > 32 | < 4 | > 32 | > 32
CO[C@]1(C)C[C@@H](C)CN(C)[C@@H](CN2CCN(C(C)C)CC2)COC(=O)C(C)(C)C(=O)[C@H](C)[C@H]1O[C@@H]1O[C@H](C)C[C@H](N(C)C)[C@H]1O [Compound 156, (3S,6R,8R,9R,10R)-9-(((2S,3R,4S,6R)-4-(dimethylamino)-3-hydroxy-6-methyltetrahydro-2H-pyran-2-yl)oxy)-3-((4-isopropylpiperazin-1-yl)methyl)-8-methoxy-4,6,8,10,12,12-hexamethyl-1-oxa-4-azacyclotridecane-11,13-dione] |  |  |  |  |  | > 32 | 4 to 32 (≈ 6.24 to 49.9 µM) | < 4 | 4 to 32 (≈ 6.24 to 49.9 µM) | > 32
CO[C@]1(C)C[C@@H](C)CN(C)[C@H]([C@](C)(O)CCN(C)CCO)COC(=O)C(C)(C)C(=O)[C@H](C)[C@H]1O[C@@H]1O[C@H](C)C[C@H](N(C)C)[C@H]1O [Compound 228] |  |  |  |  |  | > 32 | < 4 | 4 to 32 (≈ 6.19 to 49.5 µM) | > 32 | > 32
CO[C@]1(C)C[C@@H](C)CN(C)[C@](C)(C[C@H]2C[C@H](N(C)CC3CC3)C2)COC(=O)C(C)(C)C(=O)[C@H](C)[C@H]1O[C@@H]1O[C@H](C)C[C@H](N(C)C)[C@H]1O [Compound 197] |  |  |  |  |  | > 32 | 4 to 32 (≈ 6.01 to 48.1 µM) | < 4 | 4 to 32 (≈ 6.01 to 48.1 µM) | > 32
CCN1C[C@H](C)C[C@@](C)(OC)[C@H](O[C@@H]2O[C@H](C)C[C@H](N(C)C)[C@H]2O)[C@@H](C)C(=O)C(C)(C)C(=O)OC[C@@H]1CN1CCN(C(C)C)CC1 [Compound 159] |  |  |  |  |  | > 32 | 4 to 32 (≈ 6.11 to 48.9 µM) | < 4 | 4 to 32 (≈ 6.11 to 48.9 µM) | > 32
CCN1C[C@H](C)C[C@@](C)(OC)[C@H](O[C@@H]2O[C@H](C)C[C@H](N(C)C)[C@H]2O)[C@@H](C)C(=O)C(C)(C)C(=O)OC[C@H]1[C@H](O)CCN(C)CCO [Compound 225] |  |  |  |  |  | > 32 | 4 to 32 (≈ 6.19 to 49.5 µM) | < 4 | 4 to 32 (≈ 6.19 to 49.5 µM) | > 32
CN[C@H]1C[C@H](C[C@]2(C)COC(=O)C(C)(C)C(=O)[C@H](C)[C@@H](O[C@@H]3O[C@H](C)C[C@H](N(C)C)[C@H]3O)[C@](C)(OC)C[C@@H](C)CN2C)C1 [Compound 199] |  |  |  |  |  | > 32 | > 32 | 4 to 32 (≈ 6.54 to 52.3 µM) | 4 to 32 (≈ 6.54 to 52.3 µM) | > 32
CCN1C[C@H](C)C[C@@](C)(OC)[C@H](O[C@@H]2O[C@H](C)C[C@H](N(C)C)[C@H]2O)[C@@H](C)C(=O)C(C)(C)C(=O)OC[C@H]1[C@H](O)CCN(C1CC1)C1Cc2ccccc2C1 [Compound 226] |  |  |  |  |  | > 32 | 4 to 32 (≈ 5.38 to 43 µM) | < 4 | 4 to 32 (≈ 5.38 to 43 µM) | > 32
CCN(C)[C@H]1C[C@H](C[C@]2(C)COC(=O)C(C)(C)C(=O)[C@H](C)[C@@H](O[C@@H]3O[C@H](C)C[C@H](N(C)C)[C@H]3O)[C@](C)(OC)C[C@@H](C)CN2C)C1 [Compound 196] |  |  |  |  |  | > 32 | > 32 | < 4 | 4 to 32 (≈ 6.25 to 50 µM) | > 32
CCCN(CCC)CC[C@@H](O)[C@@H]1COC(=O)C(C)(C)C(=O)[C@H](C)[C@@H](O[C@@H]2O[C@H](C)C[C@H](N(C)C)[C@H]2O)[C@](C)(OC)C[C@@H](C)CN1CC [Compound 223] |  |  |  |  |  | > 32 | 4 to 32 (≈ 5.95 to 47.6 µM) | < 4 | 4 to 32 (≈ 5.95 to 47.6 µM) | > 32
CCN1C[C@H](C)C[C@@](C)(OC)[C@H](O[C@@H]2O[C@H](C)C[C@H](N(C)C)[C@H]2O)[C@@H](C)C(=O)C(C)(C)C(=O)OC[C@@H]1CCCN1CCN(c2ccncc2)CC1 [Compound 181] |  |  |  |  |  | > 32 | > 32 | < 4 | > 32 | > 32
CCN1C[C@H](C)C[C@@](C)(OC)[C@H](O[C@@H]2O[C@H](C)C[C@H](N(C)C)[C@H]2O)[C@@H](C)C(=O)C(C)(C)C(=O)OC[C@H]1[C@H](O)CCN(C)Cc1ccccc1 [Compound 194] |  |  |  |  |  | 4 to 32 (≈ 5.78 to 46.2 µM) | < 4 | < 4 | 4 to 32 (≈ 5.78 to 46.2 µM) | > 32
CCN1C[C@H](C)C[C@@](C)(OC)[C@H](O[C@@H]2O[C@H](C)C[C@H](N(C)C)[C@H]2O)[C@@H](C)C(=O)C(C)(C)C(=O)OC[C@H]1CC1CCN(CCO)CC1 [Compound 169, (3R,6R,8R,9R,10R)-9-(((2S,3R,4S,6R)-4-(Dimethylamino)-3-hydroxy-6-methyltetrahydro-2H-pyran-2-yl)oxy)-4-ethyl-3-((1-(2-hydroxyethyl)piperidin-4-yl)methyl)-8-methoxy-6,8,10,12,12-pentamethyl-1-oxa-4-azacyclotridecane-11,13-dione] |  |  |  |  |  | > 32 | 4 to 32 (≈ 6.1 to 48.8 µM) | < 4 | 4 to 32 (≈ 6.1 to 48.8 µM) | > 32
CCN1C[C@H](C)C[C@@](C)(OC)[C@H](O[C@@H]2O[C@H](C)C[C@H](N(C)C)[C@H]2O)[C@@H](C)C(=O)C(C)(C)C(=O)OC[C@H]1[C@H](O)CCN(C)C(C)C [Compound 224] |  |  |  |  |  | > 32 | 4 to 32 (≈ 6.21 to 49.7 µM) | < 4 | 4 to 32 (≈ 6.21 to 49.7 µM) | > 32
